Experimental data from PubChem BioAssay AID1963864 (Molecular Pharmacology Branch, DTP, NCI, 2024).

System: KRAS PDC multicell spheroid viability
Assay: Anticancer human tumor 521955-158-R6-J3-PDC patient-derived pancreatic carcinoma cell line growth inhibition [KRAS2]
Details: for IC50: curve of first compound; for viability, T/C: stronger effect = lower value; active means viability on the fitted dose curve at most 10% of control; inactive means the rest
Outline: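 Combination screen of spheroid viability in tumor-cell co-cultures with endothelial (HUVEC) and mesenchymal stem cell stroma. Each agent was tested in half-log dilutions, topping at clinical Cmax or at 10 microM without a known Cmax.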

[1] = second compound 0.0316 µM, first compound 0.0316 µM
[2] = second compound 0.0316 µM, first compound 0.1 µM
[3] = second compound 0.1 µM, first compound 0.0316 µM
[4] = second compound 0.1 µM, first compound 0.1 µM
[5] = second compound 0.316 µM, first compound 0.0316 µM
[6] = second compound 0.316 µM, first compound 0.1 µM
[7] = second compound 1 µM, first compound 0.0316 µM
[8] = second compound 1 µM, first compound 0.1 µM
[9] = second compound 3.16 µM, first compound 0.0316 µM
[10] = second compound 3.16 µM, first compound 0.1 µM
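Further: drug exposure lasted seven days.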
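Wherever viability, T/C is given: 100% = DMSO vehicle wells and lower means fewer viable cells.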

CN(C)C/C=C/C(=O)Nc1cc2c(Nc3ccc(F)c(Cl)c3)ncnc2cc1O[C@H]1CCOC1 + C=CC(=O)N1CCN(c2nc(OCC3CCCN3C)nc3c2CCN(c2cccc4cccc(C)c24)C3)CC1CC#N
inactive: viability, T/C (second compound 0.0316 µM, first compound 0.000316 µM) 108% | viability, T/C (second compound 0.0316 µM, first compound 0.001 µM) 92.2% | viability, T/C (second compound 0.0316 µM, first compound 0.00316 µM) 81.8% | viability, T/C (second compound 0.0316 µM, first compound 0.01 µM) 72.4% | viability, T/C [1] 66% | viability, T/C [2] 66.8% | viability, T/C (second compound 0.1 µM, first compound 0.000316 µM) 97.2% | viability, T/C (second compound 0.1 µM, first compound 0.001 µM) 93.8% | viability, T/C (second compound 0.1 µM, first compound 0.00316 µM) 89.6% | viability, T/C (second compound 0.1 µM, first compound 0.01 µM) 64.7% | viability, T/C [3] 72.4% | viability, T/C [4] 61.8% | viability, T/C (second compound 0.316 µM, first compound 0.000316 µM) 99.9% | viability, T/C (second compound 0.316 µM, first compound 0.001 µM) 92.2% | viability, T/C (second compound 0.316 µM, first compound 0.00316 µM) 91% | viability, T/C (second compound 0.316 µM, first compound 0.01 µM) 78.7% | viability, T/C [5] 68% | viability, T/C [6] 67.6% | viability, T/C (second compound 1 µM, first compound 0.000316 µM) 91.9% | viability, T/C (second compound 1 µM, first compound 0.001 µM) 93.4% | viability, T/C (second compound 1 µM, first compound 0.00316 µM) 81.3% | viability, T/C (second compound 1 µM, first compound 0.01 µM) 63.4% | viability, T/C [7] 64.1% | viability, T/C [8] 64.5% | viability, T/C (second compound 3.16 µM, first compound 0.000316 µM) 48.5% | viability, T/C (second compound 3.16 µM, first compound 0.001 µM) 32.9% | viability, T/C (second compound 3.16 µM, first compound 0.00316 µM) 15.2% | viability, T/C (second compound 3.16 µM, first compound 0.01 µM) 12.7% | viability, T/C [9] 12.8% | viability, T/C [10] 23.1%
> 100 nM: IC50 (second compound 0.0316 µM) | IC50 (second compound 0.1 µM) | IC50 (second compound 0.316 µM) | IC50 (second compound 1 µM)
< 0.316 nM: IC50 (second compound 3.16 µM)

COC(=O)c1ccc2c(C(=Nc3ccc(N(C)C(=O)CN4CCN(C)CC4)cc3)c3ccccc3)c(O)[nH]c2c1 + C=CC(=O)N1CCN(c2nc(OCC3CCCN3C)nc3c2CCN(c2cccc4cccc(C)c24)C3)CC1CC#N
< 31.6 nM: IC50 (second compound 3.16 µM)
1830 nM: IC50 (second compound 1 µM)
2840 nM: IC50 (second compound 0.1 µM) | IC50 (second compound 0.316 µM)
inactive: viability, T/C [1] 96.2% | viability, T/C [2] 110% | viability, T/C (second compound 0.0316 µM, first compound 0.316 µM) 116% | viability, T/C (second compound 0.0316 µM, first compound 1 µM) 123% | viability, T/C (second compound 0.0316 µM, first compound 3.16 µM) 48.8% | viability, T/C [3] 91.8% | viability, T/C [4] 116% | viability, T/C (second compound 0.1 µM, first compound 0.316 µM) 102% | viability, T/C (second compound 0.1 µM, first compound 1 µM) 111% | viability, T/C (second compound 0.1 µM, first compound 3.16 µM) 44.3% | viability, T/C [5] 79.7% | viability, T/C [6] 102% | viability, T/C (second compound 0.316 µM, first compound 0.316 µM) 103% | viability, T/C (second compound 0.316 µM, first compound 1 µM) 106% | viability, T/C (second compound 0.316 µM, first compound 3.16 µM) 45.1% | viability, T/C [7] 74.3% | viability, T/C [8] 75.5% | viability, T/C (second compound 1 µM, first compound 0.316 µM) 90.2% | viability, T/C (second compound 1 µM, first compound 1 µM) 95.4% | viability, T/C (second compound 1 µM, first compound 3.16 µM) 19.1% | viability, T/C [9] 36.9% | viability, T/C [10] 31.4% | viability, T/C (second compound 3.16 µM, first compound 0.316 µM) 37.8% | viability, T/C (second compound 3.16 µM, first compound 1 µM) 5.71%
active: viability, T/C (second compound 0.0316 µM, first compound 10 µM) 0.2% | viability, T/C (second compound 0.1 µM, first compound 10 µM) 1.53% | viability, T/C (second compound 0.316 µM, first compound 10 µM) 1.91% | viability, T/C (second compound 1 µM, first compound 10 µM) 1.01% | viability, T/C (second compound 3.16 µM, first compound 3.16 µM) 1.1% | viability, T/C (second compound 3.16 µM, first compound 10 µM) 0.76%
3090 nM: IC50 (second compound 0.0316 µM)
